Reference: ChEMBL document CHEMBL6109155, “Discovery of Phenylacylpiperidine as Novel sEH Inhibitors through Scaffold Hopping of Natural Stilbene” (J Med Chem, 2025)
Calls of active or inactive are those of the source. The rule behind the calls is not given here.

Legend:
Mus musculus [1] = assay: Anti-inflammatory activity in BALB/c mouse model of carrageenan-induced paw edema at 20 mg/kg, po measured for 0.5 to 6 hrs; format: functional, organism-based; details: time 0.5-6 hrs
Mus musculus [2] = assay: Anti-inflammatory activity in BALB/c mouse model of carrageenan-induced paw edema assessed as inhibition of paw swelling at 10 mg/kg, po measured up to 6 hrs relative to control; format: functional; details: Mus musculus, BALB/c
Mus musculus [3] = assay: Anti-inflammatory activity in BALB/c mouse model of carrageenan-induced paw edema assessed as inhibition of paw swelling at 20 mg/kg, po measured after 6 hrs relative to control; format: functional
Mus musculus [4] = assay: Anti-inflammatory activity in BALB/c mouse model of carrageenan-induced paw edema assessed as increase in ratio of 8,9-EET to DHET plasma levels at 10 mg/kg, po measured after 6 hrs relative to control; format: functional
Mus musculus [5] = assay: Anti-inflammatory activity in BALB/c mouse model of carrageenan-induced paw edema assessed as increase in ratio of 14,15-EET to DHET plasma levels at 10 mg/kg, po measured after 6 hrs relative to control; format: functional
Mus musculus [6] = assay: Anti-inflammatory activity in BALB/c mouse model of carrageenan-induced paw edema assessed as increase in plasma 8,9-EET levels at 10 mg/kg, po measured after 6 hrs relative to control; format: functional
Mus musculus [7] = assay: Anti-inflammatory activity in BALB/c mouse model of carrageenan-induced paw edema assessed as increase in plasma 11,12-EET levels at 10 mg/kg, po measured after 6 hrs relative to control; format: functional
Mus musculus [8] = assay: Anti-inflammatory activity in BALB/c mouse model of carrageenan-induced paw edema assessed as decrease in plasma 8,9-DHET levels at 10 mg/kg, po measured after 6 hrs relative to control; format: functional; design: scale not given: the % may be the effect or the level left
Mus musculus [9] = assay: Anti-inflammatory activity in BALB/c mouse model of carrageenan-induced paw edema assessed as decrease in plasma 14,15-DHET levels at 10 mg/kg, po measured after 6 hrs relative to control; format: functional; design: scale not given: the % may be the effect or the level left
Rattus norvegicus [10] = assay: Anti-inflammatory activity in Sprague-Dawley rat model of CFA-induced rheumatoid arthritis assessed as decrease in swelling degree of left paw at 10 mg/kg, po administered daily measured after 16 to 19 days; format: functional, organism-based; details: time 16-19 day
Rattus norvegicus [11] = assay: Anti-inflammatory activity in Sprague-Dawley rat model of CFA-induced rheumatoid arthritis assessed as decrease in paw swelling at 10 mg/kg, po administered daily measured after 7 days; format: functional, organism-based; details: time 7.0 day
Rattus norvegicus [12] = assay: Anti-inflammatory activity in Sprague-Dawley rat model of CFA-induced rheumatoid arthritis assessed as decrease in arthritis index at 10 mg/kg, po administered daily measured for 7 to 19 days; format: functional, organism-based; details: time 7-19 day
Rattus norvegicus [13] = assay: Anti-inflammatory activity in Sprague-Dawley rat model of CFA-induced rheumatoid arthritis assessed as improvement in food intake at 10 mg/kg, po administered daily measured for 19 days; format: functional, organism-based; details: time 19.0 day
Rattus norvegicus [14] = assay: Anti-inflammatory activity in Sprague-Dawley rat model of CFA-induced rheumatoid arthritis assessed as BV/TV value at 10 mg/kg, po administered daily measured after 19 days by micro-CT analysis (reference value: 40.047 %); format: functional; details: time 19 day
Rattus norvegicus [15] = assay: Anti-inflammatory activity in Sprague-Dawley rat model of CFA-induced rheumatoid arthritis assessed as BS value at 10 mg/kg, po administered daily measured after 19 days by micro-CT analysis (reference value: 636.014 mm2); format: functional; details: time 19 day
Rattus norvegicus [16] = assay: Anti-inflammatory activity in Sprague-Dawley rat model of CFA-induced rheumatoid arthritis assessed as increase in ratio of plasma 11,12-EET to DHET levels at 10 mg/kg, po administered daily measured after 19 days relative to control; format: functional; details: time 19 day
Rattus norvegicus [17] = assay: Anti-inflammatory activity in Sprague-Dawley rat model of CFA-induced rheumatoid arthritis assessed as increase in ratio of plasma 14,15-EET to DHET levels at 10 mg/kg, po administered daily measured after 19 days relative to control; format: functional; details: time 19 day
Mus musculus [18] = assay: Anti-inflammatory activity in CD-1 mouse model of cerulein-induced acute pancreatitis assessed as decrease in pancreatic edema at 10 mg/kg, ip drug administered at 30 mins and 2.5 hrs post-first cerulein injection and measured after 6 hrs post-first cerulein injection by H and E staining based analysis; format: functional, organism-based; details: time 3.5-5.5 hrs
Mus musculus [19] = assay: Anti-inflammatory activity in CD-1 mouse model of cerulein-induced acute pancreatitis assessed as increase in ratio of pancreatic EET/DHET level at 10 mg/kg, ip drug administered at 30 mins and 2.5 hrs post-first cerulein injection and measured after 6 hrs post-first cerulein injection (reference value: 23.5 to 41.7 %); format: functional; details: time 3.5-5.5 hrs
[20] = In vivo inhibition of pancreatic sEH in CD-1 mouse model of cerulein-induced acute pancreatitis 10 mg/kg, ip drug administered at 30 mins and 2.5 hrs post-first cerulein injection and measured after 6 hrs post-first cerulein injection; format: functional; details: time 3.5-5.5 hrs
Cytochrome P450 1A2 = target: T1, Cytochrome P450 1A2 (Homo sapiens, UniProt P05177); assay: Inhibition of CYP1A2 in human liver microsomes preincubated for 10 mins followed by NADPH addition measured after 3.5 mins by LC-MS/MS analysis; format: ADME, Microsome
T1 sequence (P05177 whole entry): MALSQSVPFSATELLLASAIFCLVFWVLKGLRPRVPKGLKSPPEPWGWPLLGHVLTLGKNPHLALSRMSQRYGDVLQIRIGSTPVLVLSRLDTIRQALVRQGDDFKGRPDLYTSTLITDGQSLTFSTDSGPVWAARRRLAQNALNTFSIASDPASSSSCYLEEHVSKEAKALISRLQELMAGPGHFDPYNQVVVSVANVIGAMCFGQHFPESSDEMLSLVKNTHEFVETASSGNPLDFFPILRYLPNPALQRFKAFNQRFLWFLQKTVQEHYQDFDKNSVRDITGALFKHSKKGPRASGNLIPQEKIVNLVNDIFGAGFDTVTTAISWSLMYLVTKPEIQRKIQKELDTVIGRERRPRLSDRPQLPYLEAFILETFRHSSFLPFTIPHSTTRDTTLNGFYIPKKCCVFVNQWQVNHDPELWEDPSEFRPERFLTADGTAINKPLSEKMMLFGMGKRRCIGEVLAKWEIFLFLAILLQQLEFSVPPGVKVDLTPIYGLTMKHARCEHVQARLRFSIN

[21] = Cmax in plasma of C57BL/6J mouse at 20 mg/kg, po measured for 24 hrs; format: ADME, organism-based
[22] = AUC (0 to 24 hrs) in plasma of C57BL/6J mouse at 20 mg/kg, po measured for 24 hrs; format: ADME, organism-based
[23] = Ratio of Cmax in liver to plasma in C57BL/6J mouse at 20 mg/kg, po measured for 24 hrs; format: ADME, organism-based; details: liver and plasma
[24] = Ratio of AUC (0 to 24 hrs) in liver to plasma in C57BL/6J mouse at 20 mg/kg, po measured for 24 hrs; format: ADME, organism-based; details: liver and plasma, read-out: Ratio AUC
[25] = Ratio of Cmax in kidney to plasma in C57BL/6J mouse at 20 mg/kg, po measured for 24 hrs; format: ADME, organism-based; details: kidney and plasma
[26] = Cmax in Sprague-Dawley rat at 20 mg/kg, po measured for 24 hrs; format: ADME, organism-based; details: in vivo
[27] = Clearance in Sprague-Dawley rat at 20 mg/kg, po measured for 24 hrs; format: ADME, organism-based; details: in vivo

COc1cc(CC(=O)N2CCC(NC(=O)NCc3ccc(OC(F)(F)F)cc3)CC2)cc(OC)c1
Activity (Mus musculus [1]): Active | inhibition in vivo at 10 mg/kg (Mus musculus [2]): 38.8% | inhibition in vivo at 20 mg/kg (Mus musculus [3]): 38.1% | Activity (Mus musculus [4]): 355% | Activity (Mus musculus [5]): 677% | Activity (Mus musculus [6]): 28.7% | Activity (Mus musculus [7]): 85.4% | Activity (Mus musculus [8]): 70.3% | Activity (Mus musculus [9]): 69.8% | Activity (Rattus norvegicus [10]): Active | Activity (Rattus norvegicus [11]): Active | Activity (Rattus norvegicus [12]): Active | Activity (Rattus norvegicus [13]): Active | Activity (Rattus norvegicus [14]): 62.73% | Activity (Rattus norvegicus [15]): 432.009 mm2 | Activity (Rattus norvegicus [16]): 111% | Activity (Rattus norvegicus [17]): 463% | Activity (Mus musculus [18]): Active | Activity (Mus musculus [19]): 311% | inhibition in vivo at 10 mg/kg [20]: 44.7% | IC50 (Cytochrome P450 1A2): > 50 µM | Cmax [21]: 482 ng/mL | AUC(0-t) at 24 h [22]: 532 ng·h/mL | Kp at 24 h [23]: 6.71 | Kp at 24 h [24]: 50.9 | Kp at 24 h [25]: 9.43 | Cmax [26]: 359 ng/mL | CL/F [27]: 470 mL/min/kg
